Experimental data published in US8952024B2, “Herbicidal pyrimidone derivatives” (E I du Pont de Nemours and Company, priority 2009, dated 2015).
Where two headings read alike, the source gives them in different places.

Key:
Format in all cases: in vivo
[1] = test system: barnyardgrass (Echinochloa crus-galli); experiment: Test A pre-/postemergence plant response; conditions: Echinochloa crus-galli, 240 h, read-out: Plant response rating, Barnyardgrass; for pest or weed control at 125 g/ha: 125 g ai/ha; for pest or weed control at 500 g/ha: 500 g ai/ha, approx. ten days
In short: (§1)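 Formulated test chemicals (non-phytotoxic solvent, surfactant) were sprayed onto soil right after planting and simultaneously onto young plants at one to two leaves, 2 to 10 cm tall. Plants stayed in the greenhouse about ten days; injury was then visually scored against untreated controls, from 0 (no effect) to 100 (complete control).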

[2] = test system: giant foxtail (Setaria faberii); experiment: Test A pre-/postemergence plant response; conditions: Setaria faberi, 240 h, read-out: Plant response rating, Foxtail, Giant; for pest or weed control at 125 g/ha: 125 g ai/ha; for pest or weed control at 500 g/ha: 500 g ai/ha, approx. ten days
In short: as §1

[3] = test system: pigweed (Amaranthus retroflexus); experiment: Test A pre-/postemergence plant response; conditions: Amaranthus retroflexus, 240 h, read-out: Plant response rating, Pigweed; for pest or weed control at 125 g/ha: 125 g ai/ha; for pest or weed control at 500 g/ha: 500 g ai/ha, approx. ten days
In short: as §1

corn (Zea mays) = experiment: Test A pre-/postemergence plant response; conditions: Zea mays, 240 h; for Corn plant response rating (crop injury, 0 = no effect, 100 = complete kill) at 125 g/ha: 125 g ai/ha
In short: as §1

[4] = test system: nightshade (eastern black nightshade, Solanum ptycanthum); experiment: Test B pre-/postemergence plant response; conditions: Preemergence
In short: (§2)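 Pre-em in loam/sand; post-em at 1–4 leaf (2–18 cm) in peat mix. Solvent + surfactant formulation. Greenhouse 13–15 d; visual % control vs untreated, 0–100.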

[5] = test system: sunflower (common oilseed sunflower, Helianthus annuus); experiment: Test B pre-/postemergence plant response; conditions: Preemergence
In short: as §2

[6] = test system: galium (catchweed bedstraw, Galium aparine); experiment: Test B pre-/postemergence plant response; conditions: Preemergence
In short: as §2

[7] = test system: ducksalad (Heteranthera limosa); experiment: Test B flooded paddy test; conditions: Heteranthera limosa, 360 h
In short: (§3)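 Rice, umbrella sedge, ducksalad and barnyardgrass were grown to the 2-leaf stage, flooded to 3 cm, and compound was applied directly to the paddy water, with that depth kept throughout. After 13 to 15 days in the greenhouse, plants were visually rated against controls on a 0 (no effect) to 100 (complete control) scale.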

[8] = test system: barnyardgrass (Echinochloa crus-galli); experiment: Test B flooded paddy test; conditions: Echinochloa crus-galli, 360 h
In short: as §3

[9] = test system: umbrella sedge (Cyperus difformis); experiment: Test B flooded paddy test; conditions: Cyperus difformis, 360 h
In short: as §3

rice (Oryza sativa) = experiment: Test B flooded paddy test; conditions: Oryza sativa
In short: as §3

[10] = post-emergence, Postemergence, 0 to 100 scale where 0 is no effect and 100 is complete control
[11] = post-emergence, Postemergence, 0 to 100 scale, 0 = no effect, 100 = complete control
[12] = pre-emergence, Preemergence, 0 to 100 scale, 0 = no effect, 100 = complete control
[13] = pre-emergence, Preemergence, visual injury, 0 to 100 scale (0 no effect, 100 complete control)
[14] = 31 g ai/ha, scale 0 to 100 (0 no effect, 100 complete control)
[15] = 62 g ai/ha, scale 0 to 100, 0 no effect, 100 complete control
[16] = 125 g ai/ha, scale 0 to 100, 0 no effect, 100 complete control

## O=C1CCCC(O)=C1C(=O)c1cnc(-c2cccnc2)n(-c2ccccc2)c1=O [Compound 113, 5-[(2-hydroxy-6-oxo-1-cyclohexen-1-yl)carbonyl]-3-phenyl-2-(3-pyridinyl)-4(3H)-pyrimidone]
[1]; [10]
  pest or weed control at 125 g/ha: 70%
[1]; [11]
  pest or weed control at 500 g/ha: 90%
[1]; [12]
  pest or weed control at 125 g/ha: 10%
[1]; [13]
  pest or weed control at 500 g/ha: 90%
[2]; [10]
  pest or weed control at 125 g/ha: 90%
[2]; [11]
  pest or weed control at 500 g/ha: 100%
[2]; [12]
  pest or weed control at 125 g/ha: 70%
[2]; [13]
  pest or weed control at 500 g/ha: 90%
[3]; [10]
  pest or weed control at 125 g/ha: 100%
[3]; [11]
  pest or weed control at 500 g/ha: 100%
[3]; [12]
  pest or weed control at 125 g/ha: 100%
[3]; [13]
  pest or weed control at 500 g/ha: 100%
Corn (Zea mays); [10]
  Corn plant response rating (crop injury, 0 = no effect, 100 = complete kill) at 125 g/ha: 0%
Corn (Zea mays); post-emergence, Postemergence, 500 g ai/ha, 0 to 100 scale, 0 = no effect, 100 = complete control, approx. ten days
  Corn plant response rating (crop injury, 0 = no effect, 100 = complete kill) at 500 g/ha: 60%
Corn (Zea mays); [12]
  Corn plant response rating (crop injury, 0 = no effect, 100 = complete kill) at 125 g/ha: 0%
[4]; [14]
  Plant response rating, Nightshade: 98
[4]; [15]
  Plant response rating, Nightshade: 98
[4]; [16]
  Plant response rating, Nightshade: 100
[4]; 250 g ai/ha, 0 to 100 scale
  Nightshade plant response rating: 100
[5]; [14]
  Plant response rating, Sunflower: 75
[5]; [15]
  Plant response rating, Sunflower: 80
[5]; [16]
  Plant response rating, Sunflower: 90
[5]; 250 g ai/ha, 0 to 100 scale
  Sunflower plant response rating: 95
[6]; [14]
  Plant response rating, Galium: 50
[6]; [15]
  Plant response rating, Galium: 70
[6]; [16]
  Plant response rating, Galium: 85
[6]; 250 g ai/ha, 0 to 100 scale
  Galium plant response rating: 95
[7]; 250 g ai/ha, flooded paddy test, visual rating on 0 to 100 scale (0 no effect, 100 complete control) after 13 to 15 days, read-out: Plant response rating, Flood, Ducksalad
  pest or weed control at 250 g/ha: 70%
[7]; Flood (flooded paddy test), 62 g ai/ha, scale of 0 to 100 where 0 is no effect and 100 is complete control, 13 to 15 days, read-out: Plant response rating, Ducksalad
  pest or weed control at 62 g/ha: 25%
[8]; 250 g ai/ha, flooded paddy test, visual rating on 0 to 100 scale (0 no effect, 100 complete control) after 13 to 15 days, read-out: Plant response rating, Flood, Barnyardgrass
  pest or weed control at 250 g/ha: 15%
[8]; Flood (flooded paddy test), 62 g ai/ha, scale of 0 to 100 where 0 is no effect and 100 is complete control, 13 to 15 days, read-out: Plant response rating, Barnyardgrass
  pest or weed control at 62 g/ha: 10%
[9]; 250 g ai/ha, flooded paddy test, visual rating on 0 to 100 scale (0 no effect, 100 complete control) after 13 to 15 days, read-out: Plant response rating, Flood, Sedge, Umbrella
  pest or weed control at 250 g/ha: 70%
[9]; Flood (flooded paddy test), 62 g ai/ha, scale of 0 to 100 where 0 is no effect and 100 is complete control, 13 to 15 days, read-out: Plant response rating, Sedge, Umbrella
  pest or weed control at 62 g/ha: 40%
Rice (Oryza sativa); 250 g ai/ha, flooded paddy test, visual rating on 0 to 100 scale (0 no effect, 100 complete control) after 13 to 15 days, read-out: Plant response rating, Flood, Rice
  plant injury at 250 g/ha: 0%
Rice (Oryza sativa); Flood (flooded paddy test), 62 g ai/ha, scale of 0 to 100 where 0 is no effect and 100 is complete control, 13 to 15 days, read-out: Plant response rating, Rice
  plant injury at 62 g/ha: 0%
